Read-outs that look alike come from different tables or passages of the source.
Assays:
CB1R [1] = biological target: T1, CB1R (Homo sapiens, UniProt P21554); assay: cell-based; assay type: cell-based
CB1R [2] = biological target: T2, CB1R (Mus musculus, UniProt P47746); assay type: cell-based; settings: Neuro2a, 10 min
CB1R [3] = tested on: CB1R
CB1R [4] = settings: cited from earlier work
CB1R [5] = biological target: T1, CB1R; assay type: cell-based; settings: Neuro2a, 30 min
CB1R [6] = biological target: T2, CB1R; assay: Operational model bias analysis, Neuro2a cells; assay type: cell-based; settings: for ΔΔlog R β-arrestin1/pPLCβ3: reference 2-AG + GAT100
CB1R [7] = biological target: T2, CB1R; assay: Operational model bias analysis, STHdh^Q7/Q7 cells; settings: STHdh^Q7/Q7
CB1R [8] = biological target: T1, CB1R; assay type: cell-based; settings: HEK293A, 30 min
CB1R [9] = assay type: cell-based; settings: mean of data for the pathway (Table 3), all cells and orthosteric ligands
CB1R [10] = biological target: T1, CB1R; assay: cell-based; assay type: cell-based; remark: listed apart in the source
CB1R [11] = biological target: T2, CB1R; settings: STHdh^Q7/Q7; 1 μM + 500 nM CP55,940
CB1R [12] = biological target: T1, CB1R; assay: cell-based
CB1R [13] = assay type: cell-based; settings: mean of data for the pathway (Table 2), all cells and orthosteric ligands
hCB1R = assay: Operational model bias analysis, HEK293A cells; assay type: cell-based, human; settings: HEK293A; for ΔΔlog R β-arrestin1/cAMP / ΔΔlog R β-arrestin1/pPLCβ3: reference 2-AG + GAT100
CB1R [14] = biological target: T2, CB1R; assay type: cell-based; settings: Neuro2a, 10 min; remark: listed apart in the source
CB1R [15] = biological target: T1, CB1R; assay type: cell-based; settings: HEK293A, 10 min
CB1R [16] = biological target: T1, CB1R; assay: [3H]SR141716A equilibrium binding, hCB1R CHO cell membranes
[17] = 500 nM 2-AG + 1 nM-10 μM allosteric modulator
[18] = 500 nM AEA + 1 nM-10 μM allosteric modulator
[19] = 500 nM CP55,940 + 1 nM-10 μM allosteric modulator

T2 sequence (P47746 whole entry): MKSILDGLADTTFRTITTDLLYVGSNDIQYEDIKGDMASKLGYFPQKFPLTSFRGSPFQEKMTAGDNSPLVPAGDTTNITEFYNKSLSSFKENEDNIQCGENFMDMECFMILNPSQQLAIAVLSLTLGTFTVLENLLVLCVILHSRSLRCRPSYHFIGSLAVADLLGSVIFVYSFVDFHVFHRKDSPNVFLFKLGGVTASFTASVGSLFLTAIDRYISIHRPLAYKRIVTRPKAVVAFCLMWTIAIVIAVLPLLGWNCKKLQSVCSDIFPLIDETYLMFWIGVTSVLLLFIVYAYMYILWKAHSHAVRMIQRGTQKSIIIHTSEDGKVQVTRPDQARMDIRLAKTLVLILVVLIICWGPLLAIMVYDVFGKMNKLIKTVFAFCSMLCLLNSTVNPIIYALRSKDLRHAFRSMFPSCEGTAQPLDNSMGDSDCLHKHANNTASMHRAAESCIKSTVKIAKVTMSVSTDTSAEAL
T1 sequence (P21554 whole entry): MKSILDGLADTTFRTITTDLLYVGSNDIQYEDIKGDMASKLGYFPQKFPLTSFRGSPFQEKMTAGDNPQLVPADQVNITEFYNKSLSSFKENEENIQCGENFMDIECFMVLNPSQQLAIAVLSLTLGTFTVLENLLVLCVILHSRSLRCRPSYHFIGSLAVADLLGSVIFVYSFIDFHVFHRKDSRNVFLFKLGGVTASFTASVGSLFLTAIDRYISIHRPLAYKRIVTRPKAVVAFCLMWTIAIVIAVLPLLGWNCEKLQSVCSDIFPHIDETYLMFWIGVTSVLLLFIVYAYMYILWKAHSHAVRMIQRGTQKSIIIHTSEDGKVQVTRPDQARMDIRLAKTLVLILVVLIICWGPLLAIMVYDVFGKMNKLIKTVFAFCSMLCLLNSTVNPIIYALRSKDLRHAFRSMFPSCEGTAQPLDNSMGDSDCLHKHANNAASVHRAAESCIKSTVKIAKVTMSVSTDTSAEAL

CCc1c(C(=O)NCCc2ccc(N3CCCCC3)cc2)[nH]c2ccc(Cl)cc12 [Org27569, 5-chloro-3-ethyl-N-(4-(piperidin-1-yl)phenethyl)-1H-indole-2-carboxamide]
Emax pPLCβ3/Total PLCβ3, 2-AG (CB1R [1]; HEK293A, 1 nM-10 μM 2-AG + 1 μM NAM, 10 min): 0.52 ± 0.02 | Emax pPLCβ3/Total PLCβ3, AEA (CB1R [1]; HEK293A, 1 nM-10 μM AEA + 1 μM NAM, 10 min): 0.49 ± 0.02 | Emax pPLCβ3/Total PLCβ3, CP55,940 (CB1R [1]; HEK293A, 1 nM-10 μM CP55,940 + 1 μM NAM, 10 min): 0.60 ± 0.03 | IC50 (CB1R [1]; IC50, PLCβ3 phosphorylation, CP55,940): 151 nM | Emax pPLCβ3/Total PLCβ3, 2-AG (CB1R [2]; 1 nM-10 μM 2-AG + 1 μM NAM): 0.53 ± 0.02 | Emax pPLCβ3/Total PLCβ3, AEA (CB1R [2]; 1 nM-10 μM AEA + 1 μM NAM): 0.52 ± 0.02 ^†† | Emax pPLCβ3/Total PLCβ3, CP55,940 (CB1R [2]; 1 nM-10 μM CP55,940 + 1 μM NAM): 0.58 ± 0.02 ^†† | Emax, 2-AG (probe dependence summary) (CB1R [3]; mean of data for 2-AG (Tables 1-4)): 0.49 ± 0.02 | Emax, AEA (probe dependence summary) (CB1R [3]; mean of data for AEA (Tables 1-4)): 0.45 ± 0.03 | Emax, CP55,940 (probe dependence summary) (CB1R [3]; mean of data for CP55,940 (Tables 1-4)): 0.50 ± 0.04 | Emax, HEK293A (cell dependence summary) (CB1R [3]; mean of data for HEK293A (Tables 1-3)): 0.49 ± 0.02 | Emax, Neuro2a (cell dependence summary) (CB1R [3]; mean of data for Neuro2a (Tables 1-3)): 0.50 ± 0.02 | Emax, STHdh^Q7/Q7 (cell dependence summary) (CB1R [3]; mean of data for STHdh^Q7/Q7 (Tables 1-3)): 0.51 ± 0.02 | effect on CP55,940 equilibrium binding by CB1R (CB1R [4]): increase CP55,940 equilibrium binding | Emax (BRETEff), 2-AG (CB1R [5]; 1 nM-10 μM 2-AG + 1 μM NAM): 0.47 ± 0.03 | Emax (BRETEff), AEA (CB1R [5]; 1 nM-10 μM AEA + 1 μM NAM): 0.44 ± 0.02 | Emax (BRETEff), CP55,940 (CB1R [5]; 1 nM-10 μM CP55,940 + 1 μM NAM): 0.60 ± 0.05 | BF β-arrestin1/pERK1/2 (CB1R [6]; [17]): 3.2 | BF β-arrestin1/pPLCβ3 (CB1R [6]; [17]): 0.6 | ΔΔlog R β-arrestin1/pPLCβ3 (CB1R [6]; [17]): –0.2 ± 0.2 | BF β-arrestin1/pERK1/2 (CB1R [6]; [18]): 1.6 | BF β-arrestin1/pPLCβ3 (CB1R [6]; [18]): 4.0 | ΔΔlog R β-arrestin1/pPLCβ3 (CB1R [6]; [18]): 0.6 ± 0.2 | BF β-arrestin1/pERK1/2 (CB1R [6]; [19]): 3.2 | BF β-arrestin1/pPLCβ3 (CB1R [6]; [19]): 4.0 | ΔΔlog R β-arrestin1/pPLCβ3 (CB1R [6]; [19]): 0.6 ± 0.4 | BF β-arrestin1/pERK1/2 (CB1R [7]; [17]): 0.5 | BF β-arrestin1/pPLCβ3 (CB1R [7]; [17]): 0.3 | BF β-arrestin1/pERK1/2 (CB1R [7]; [18]): 1.3 | BF β-arrestin1/pPLCβ3 (CB1R [7]; [18]): 0.2 | BF β-arrestin1/pERK1/2 (CB1R [7]; [19]): 0.3 | BF β-arrestin1/pPLCβ3 (CB1R [7]; [19]): 0.8 | Emax (BRETEff), 2-AG (CB1R [8]; 1 nM-10 μM 2-AG + 1 μM NAM): 0.49 ± 0.03 | Emax (BRETEff), AEA (CB1R [8]; 1 nM-10 μM AEA + 1 μM NAM): 0.49 ± 0.02 | Emax (BRETEff), CP55,940 (CB1R [8]; 1 nM-10 μM CP55,940 + 1 μM NAM): 0.58 ± 0.03 | Emax, ERK (pathway ligand bias summary) (CB1R [9]): 0.45 ± 0.01 | Emax, cAMP (pathway ligand bias summary) (CB1R [10]): 0.31 ± 0.04 ^† | effect on cAMP levels in the absence of orthosteric agonists (inverse agonism) (CB1R [10]; HEK-CRE, 10 μM forskolin + 1 nM to 10 μM compound alone, 4 h): increased cAMP levels significantly | IC50 (CB1R [10]; IC50, cAMP, CP55,940): 969 nM | Emax (CB1R [10]; read-out: Emax (% cAMP inhibition), CP55,940): 25.7 ± 1.64% | effect on CP55,940-induced CB1R internalization (fraction of CB1R at the plasma membrane) (CB1R [11]): reversed this effect | IC50 (CB1R [12]): 236 nM | Emax, β-arrestin1 (pathway ligand bias summary) (CB1R [12]; mean of data for the pathway (Table 1), all cells and orthosteric ligands): 0.50 ± 0.02 | Emax, PLCβ3 (pathway ligand bias summary) (CB1R [13]): 0.55 ± 0.01 | BF β-arrestin1/cAMP (hCB1R; [17]): 0.2 | BF β-arrestin1/pERK1/2 (hCB1R; [17]): 0.1 | BF β-arrestin1/pPLCβ3 (hCB1R; [17]): 0.1 | ΔΔlog R β-arrestin1/cAMP (hCB1R; [17]): –0.6 ± 0.8 | ΔΔlog R β-arrestin1/pPLCβ3 (hCB1R; [17]): –1.0 ± 0.9 | BF β-arrestin1/cAMP (hCB1R; [18]): 0.1 | BF β-arrestin1/pERK1/2 (hCB1R; [18]): 15.8 | BF β-arrestin1/pPLCβ3 (hCB1R; [18]): 0.03 | ΔΔlog R β-arrestin1/cAMP (hCB1R; [18]): –1.2 ± 0.6 | ΔΔlog R β-arrestin1/pPLCβ3 (hCB1R; [18]): –1.6 ± 0.6 | BF β-arrestin1/cAMP (hCB1R; [19]): 1.0 | BF β-arrestin1/pERK1/2 (hCB1R; [19]): 4.0 | BF β-arrestin1/pPLCβ3 (hCB1R; [19]): 0.5 | ΔΔlog R β-arrestin1/cAMP (hCB1R; [19]): 0.0 ± 0.6 | ΔΔlog R β-arrestin1/pPLCβ3 (hCB1R; [19]): –0.3 ± 0.1 | Emax pERK1/2/Total ERK1/2, 2-AG (CB1R [14]; 1 nM-10 μM 2-AG + 1 μM NAM): 0.48 ± 0.03 | Emax pERK1/2/Total ERK1/2, AEA (CB1R [14]; 1 nM-10 μM AEA + 1 μM NAM): 0.44 ± 0.02 | Emax pERK1/2/Total ERK1/2, CP55,940 (CB1R [14]; 1 nM-10 μM CP55,940 + 1 μM NAM): 0.43 ± 0.02 | Emax pERK1/2/Total ERK1/2, 2-AG (CB1R [15]; 1 nM-10 μM 2-AG + 1 μM NAM): 0.46 ± 0.02 | Emax pERK1/2/Total ERK1/2, AEA (CB1R [15]; 1 nM-10 μM AEA + 1 μM NAM): 0.42 ± 0.02 | Emax pERK1/2/Total ERK1/2, CP55,940 (CB1R [15]; 1 nM-10 μM CP55,940 + 1 μM NAM): 0.40 ± 0.01 | EC50 (CB1R [16]): 2520 nM | Emax (CB1R [16]; read-out: Emax, [3H]SR141716A binding): -17.6%

Reference: article PMC5358098 (ACS chemical neuroscience, 2016)
